From patent publication US6979664B1, “Composition for accelerating seed germination and plant growth” (Bios Agriculture Inc., priority 1998, dated 2005)

How the values were obtained:
Format in all cases: in vivo
corn (Zea mays L.) = assay: germination of corn after 72 h of treatment (petri plate); details: 25° C.
Experimental: Seeds of corn (cv Pioneer 3921) were surface sterilized in 2% sodium hypochlorite solution for 2 minutes and placed in 9 cm diameter Petri plates containing a sheet of filter paper soaked in 10 ml of the required test solution (LCO 10^−5–10^−13). Water served as the control. Observations on germination, length of root primodia and shoot were taken after 72 h of incubation at 25° C. The data was analyzed for significance by an ANOVA protected LSD test using SAS system Version 6.1 (SAS Inc., Cary, N.C., USA).

Letuca sativa = assay: seedling emergence at 25° C.
From the text: (§1) Plastic pots (7.5 cm dia) were filled with 15 g of autoclaved vermiculite. Seeds of corn (Zea mays—Poaceae), bean (Phaseolus vulgaris—Fabaceae), canola (Brassica napus—Brassicaceae), cucumber (Cucumis sativus—Cucurbitaceae), cantaloupe (Cucumis melo—Cucurbitaceae), cotton (Gossypium sp.—Malvaceae), lettuce (Lactuca sativa—Asteraceae), beet (Beta vulgaris—Chenopodiaceae), and soybean (Glycine max—Fabaceae), were placed at 2.5 cm deep at the rate of 5 or 10 seeds per pot. Pots were irrigated with either 25 mL of LCO solution at different concentrations (10^−6–10^−14M) or aqueous acetonitrile or water, as controls. Acetonitrile was included as one of the controls since LCO was purified in this solvent (see Example 3), after 4 days the pots were irrigated with 10 mL of water once every two days. Each treatment had 4 replications in a randomized block design. Pots were placed on a green house bench maintained at 25±2° C. with a day/night cycle 16/8 h and relative humidity of 70%, or in a growth chamber set at 15° C. with a 16:8 day/night cycle. […] As defined above, seedling emergence has occurred when growth of the plant can be observed above the rooting medium surface. The percent emergence was calculated. The data were analyzed with Statistical Analysis System, version 6.12 (SAS institute Inc. Cary, N.C., USA).

Cucumis melo = assay: seedling emergence at 25° C.
From the text: as §1

Phaseolus vulgaris = assay: seedling emergence at 25° C.
From the text: as §1

Beta vulgaris = assay: seedling emergence at 25° C.
From the text: as §1

Glycine max = assay: seedling emergence at 25° C.
From the text: as §1

Zea mays = assay: seedling emergence at 25° C.
From the text: as §1

Gossypium sp. = assay: seedling emergence at 25° C.
From the text: as §1

Cotton = assay: seedling emergence under field condition; details: for seedling emergence under field condition: Cotton, six days after planting
Experimental: (§2) Seeds were surface sterilized with 2% sodium hypochlorite and soaked in different concentrations (10^−5, 10^−7, 10^−9M) of LCO solution for 12 h. Water served as the control. The study was conducted at the experimental field of the Macdonald campus of McGill University, Ste-Anne-de-Belleveue. Quebec, Canada. The field was ploughed to a fine tilth, seeds were hand planted in 1 m rows at 2.5 to 3 cm deep with three replications per treatment. […] The data was analyzed for significance by an ANOVA protected LSD test using SAS system Version 6.1 (SAS Inc., Cary, N.C., USA).

Corn = assay: seedling emergence under field condition; details: six days after planting
Experimental: as §2

Soybean = assay: seedling emergence under field condition; details: six days after planting
Experimental: as §2

Beet = assay: seedling emergence under field condition; details: six days after planting
Experimental: as §2

CCCCCCC=CCCCCCCCCCC(=O)NC1C(OC2C(CO)OC(OC3C(CO)OC(OC4C(CO)OC(OC5C(COC6OC(C)C(O)C(O)C6OC)OC(O)C(NC(C)=O)C5O)C(NC(C)=O)C4O)C(NC(C)=O)C3O)C(NC(C)=O)C2O)OC(CO)C(O)C1O (centres unmarked) [LCO, NodBj-V(C18:1Δ11)]
Length of root primodia (corn (Zea mays L.); LCO 10^−5 M): 53.0 ab mm
Length of shoot primodia (corn (Zea mays L.); LCO 10^−5 M): 12.3 ab mm
Percent germination (corn (Zea mays L.); LCO 10^−5 M): 80 bc Percent
Length of root primodia (corn (Zea mays L.); LCO 10^−7 M): 57.6 bc mm
Length of shoot primodia (corn (Zea mays L.); LCO 10^−7 M): 15.0 ab mm
Percent germination (corn (Zea mays L.); LCO 10^−7 M): 73.3 b Percent
Length of root primodia (corn (Zea mays L.); LCO 10^−9 M): 48.0 ab mm
Length of shoot primodia (corn (Zea mays L.); LCO 10^−9 M): 9.6 a mm
Percent germination (corn (Zea mays L.); LCO 10^−9 M): 73.3 b Percent
Length of root primodia (corn (Zea mays L.); LCO 10^−11 M): 78.6 c mm
Length of shoot primodia (corn (Zea mays L.); LCO 10^−11 M): 21.0 b mm
Percent germination (corn (Zea mays L.); LCO 10^−11 M): 100 c Percent
Length of root primodia (corn (Zea mays L.); LCO 10^−13 M): 43.0 bc mm
Length of shoot primodia (corn (Zea mays L.); LCO 10^−13 M): 8.3 a mm
Percent germination (corn (Zea mays L.); LCO 10^−13 M): 80 bc Percent
seedling emergence (%) (Letuca sativa; 10^−6 M): 45 a %
seedling emergence (%) (Letuca sativa; 10^−7 M): 35 ab %
seedling emergence (%) (Letuca sativa; 10^−8 M): 10 dc %
seedling emergence (%) (Letuca sativa; 10^−9 M): 20 bcd %
seedling emergence (%) (Letuca sativa; 10^−10 M): 25 abcd %
seedling emergence (%) (Letuca sativa; 10^−11 M): 26 abcd %
seedling emergence (%) (Letuca sativa; 10^−12 M): 30 abc %
seedling emergence (%) (Letuca sativa; 10^−13 M): 5 d %
seedling emergence (%) (Letuca sativa; 10^−14 M): 10 d %
seedling emergence (%) (Cucumis melo; 10^−7 M): 100 b %
seedling emergence (%) (Cucumis melo; 10^−9 M): 100 b %
seedling emergence (%) (Cucumis melo; 10^−11 M): 100 b %
seedling emergence (%) (Cucumis melo; 10^−13 M): 100 b %
seedling emergence (%) (Phaseolus vulgaris; 10^−6 M): 67 abc %
seedling emergence (%) (Phaseolus vulgaris; 10^−7 M): 89 a %
seedling emergence (%) (Phaseolus vulgaris; 10^−8 M): 78 ab %
seedling emergence (%) (Phaseolus vulgaris; 10^−9 M): 67 abc %
seedling emergence (%) (Phaseolus vulgaris; 10^−10 M): 44 abc %
seedling emergence (%) (Phaseolus vulgaris; 10^−11 M): 22 c %
seedling emergence (%) (Phaseolus vulgaris; 10^−12 M): 33 bc %
seedling emergence (%) (Phaseolus vulgaris; 10^−13 M): 33 bc %
seedling emergence (%) (Phaseolus vulgaris; 10^−14 M): 33 bc %
seedling emergence (%) (Beta vulgaris; 10^−7 M): 66.6%
seedling emergence (%) (Beta vulgaris; 10^−9 M): 66 b %
seedling emergence (%) (Beta vulgaris; 10^−11 M): 86 b %
seedling emergence (%) (Beta vulgaris; 10^−13 M): 80 b %
seedling emergence (%) (Glycine max; 10^−6 M): 65 d %
seedling emergence (%) (Glycine max; 10^−7 M): 80 bc %
seedling emergence (%) (Glycine max; 10^−8 M): 90 ab %
seedling emergence (%) (Glycine max; 10^−9 M): 100 a %
seedling emergence (%) (Glycine max; 10^−10 M): 70 cd %
seedling emergence (%) (Glycine max; 10^−11 M): 50 e %
seedling emergence (%) (Glycine max; 10^−12 M): 80 bc %
seedling emergence (%) (Glycine max; 10^−13 M): 70 cd %
seedling emergence (%) (Glycine max; 10^−14 M): 70 cd %
seedling emergence (%) (Zea mays; 10^−6 M): 76 ab %
seedling emergence (%) (Zea mays; 10^−7 M): 68 abc %
seedling emergence (%) (Zea mays; 10^−8 M): 84 a %
seedling emergence (%) (Zea mays; 10^−9 M): 88 a %
seedling emergence (%) (Zea mays; 10^−10 M): 84 a %
seedling emergence (%) (Zea mays; 10^−11 M): 68 abc %
seedling emergence (%) (Zea mays; 10^−12 M): 48 abc %
seedling emergence (%) (Zea mays; 10^−13 M): 40 c %
seedling emergence (%) (Zea mays; 10^−14 M): 40 c %
seedling emergence (%) (Gossypium sp.; 10^−6 M): 88 a %
seedling emergence (%) (Gossypium sp.; 10^−7 M): 66 ab %
seedling emergence (%) (Gossypium sp.; 10^−8 M): 88 a %
seedling emergence (%) (Gossypium sp.; 10^−9 M): 88 a %
seedling emergence (%) (Gossypium sp.; 10^−10 M): 88 a %
seedling emergence under field condition (Cotton; 10^−7 M seed soak 12 h): 60.0 b
seedling emergence under field condition (Cotton; LCO 10^−5 M seed soak 12 h): 16.6 a
seedling emergence under field condition (Cotton; LCO 10^−9 M seed soak 12 h): 23.3 a
improvement of emergence as compared to the control (Cotton; cotton, LCO at 10^−7M, field): more than 9 times
seedling emergence under field condition (Corn; 10^−7 M seed soak 12 h): 60.0 b
seedling emergence under field condition (Corn; LCO 10^−5 M seed soak 12 h): 80.0 b
seedling emergence under field condition (Corn; LCO 10^−9 M seed soak 12 h): 53.3 b
seedling emergence under field condition (Soybean; 10^−7 M seed soak 12 h): 33.3 b
seedling emergence under field condition (Soybean; LCO 10^−5 M seed soak 12 h): 26.6 ab
seedling emergence under field condition (Soybean; LCO 10^−9 M seed soak 12 h): 63.3 c
seedling emergence under field condition (Beet; 10^−7 M seed soak 12 h): 46.6 c
seedling emergence under field condition (Beet; LCO 10^−5 M seed soak 12 h): 28.3 a
seedling emergence under field condition (Beet; LCO 10^−9 M seed soak 12 h): 38.3 ab
